Test results taken from patent US20220370368A1, “ORAL PHARMACEUTICAL COMPOSITION COMPRISING A MELT-AGGLOMERATED ACTIVE INGREDIENT CORE” (Hermes Pharma GmbH, priority 2019, published 2022).

Assay: Angle of repose according to Ph.Eur. chapter 2.9.36
Type: physicochemical
Details: prior to agglomeration
Source text: Any flow property provisions such as “passable”, “poor” or “very poor” as used herein shall be understood as flow properties measured and ranked according to pharmacopoeial standards (e.g. European Pharmacopoeia, 6th edition, chapter 2.9.36) unless where specified otherwise: […]

CN(C)CCOC(c1ccccc1)c1ccccc1.Cn1c(=O)c2[nH]c(Cl)nc2n(C)c1=O [Dimenhydrinate]
Angle of repose: 52 °
